For twelve molecules, EC50 results are on record in patent publication US11098010B2 (priority 2017, dated 2021).

Like-named read-outs stand apart in the source and are kept apart here.

The experiment deals with HBV rcDNA in HepDE19 cells. The experiment in a line: HepDE19 assay with bDNA quantitation of HBV rcDNA. The class given is cell-based, hepatitis B virus (HBV).
[1] abbreviates: HepDE19 cells, inhibition of rcDNA formation, 7 day incubation, top concentration 25 μM, read-out: DE-19 bDNA EC50.
The mark [2] stands for this setting: Hepatitis B virus, HepDE19, 168 h, HepDE19 cells, inhibition of rcDNA formation, 7 day incubation, top concentration 25 μM, read-out: DE-19 bDNA EC50.
[3] abbreviates: Hepatitis B virus, HepDE19, 168 h, read-out: DE-19 bDNA EC50 (μM), HepDE19 cells, inhibition of rcDNA formation, 7 day incubation, top concentration 25 μM.

Regarding `O=C(N[C@H]1CCc2c(C(=O)Nc3ccc(F)c(Cl)c3)ccc(F)c21)OCc1ncn(C2CCCCO2)n1` (stereo partly drawn) [Compound 248, O-(1-(tetrahydro-2H-pyran-2-yl)-1H-1,2,4-triazol-3-yl)methyl, N-((S)-4-((3-chloro-4-fluorophenyl)carbamoyl)-7-fluoro-2,3-dihydro-1H-inden-1-yl) carbamate], under setting [1], the EC50 was found to be 0.15 µM.

Regarding `O=C(Nc1ccc(F)c(Cl)c1)c1ccc(F)c2c1CCC2=O` [Compound 251, N-(3-Chloro-4-fluorophenyl)-7-fluoro-1-oxo-2,3-dihydro-1H-indene-4-carboxamide], the EC50 under setting [2] is 0.55 µM.

In the case of `[2H]C([2H])(OC(=O)N[C@H]1CCc2c(C(=O)Nc3ccc(F)c(Cl)c3)ccc(F)c21)c1ncn(C([2H])([2H])[2H])n1` [Compound 252, O-((1-(Methyl-d3)-1H-1,2,4-triazol-3-yl)methyl-d2, N—(S)-(4-((3-chloro-4-fluorophenyl)carbamoyl)-7-fluoro-2,3-dihydro-1H-inden-1-yl) carbamate], the EC50 under setting [2] stood at 0.13 µM.

Consider `O=C(N[C@H]1CCc2c(C(=O)Nc3ccc(F)c(Cl)c3)ccc(F)c21)OCc1ncn(COP(=O)(O)O)n1` [Compound 253, O-(1-((Phosphonoxy)methyl)-1H-1,2,4-triazol-3-yl)methyl, N—(S)-(4-((3-chloro-4-fluorophenyl)carbamoyl)-7-fluoro-2,3-dihydro-1H-inden-1-yl) carbamate], for which the EC50 under setting [3] was determined as 0.12 µM.

In the case of `O=C(N[C@H]1CCc2c(C(=O)Nc3ccc(F)c(Cl)c3)ccc(F)c21)OCc1ccn(COP(=O)(O)O)n1` [Compound 254, Sodium (S)-(3-((((4-((3-chloro-4-fluorophenyl)carbamoyl)-7-fluoro-2,3-dihydro-1H-inden-1-yl)carbamoyl)oxy)methyl)-1H-pyrazol-1-yl)methyl phosphate], under setting [3], the EC50 was 0.57 µM.

Regarding `N#CCCOC(=O)N[C@H]1CCc2c(C(=O)Nc3ccc(F)c(Cl)c3)ccc(F)c21` [Compound 255, O—(S)-2-Cyanoethyl, N-4-(3-chloro-4-fluorophenylcarbamoyl)-7-fluoro-2,3-dihydro-1H-inden-1-yl carbamate], under setting [2], the EC50 turned out to be 0.08 µM.

For the molecule `N#CCCCOC(=O)N[C@H]1CCc2c(C(=O)Nc3ccc(F)c(Cl)c3)ccc(F)c21` [Compound 256, O—(S)-3-Cyanopropyl, N-4-(3-chloro-4-fluorophenylcarbamoyl)-7-fluoro-2,3-dihydro-1H-inden-1-yl carbamate], under setting [2], the EC50 turned out to be 0.24 µM.

On to `O=C(Nc1ccc(F)c(Cl)c1)c1ccc(F)c2c1CCC21NC(=O)N(Cc2ccccn2)C1=O` (stereo not drawn) [Compound 259, N-(3-chloro-4-fluoro-phenyl)-7′-fluoro-2,5-dioxo-1-(2-pyridylmethyl) spiro[imidazolidine-4,1′-indane]-4′-carboxamide], for which, under setting [1], the EC50 was 2.9 µM.

`O=C(Nc1ccc(F)c(Cl)c1)c1ccc(F)c2c1CCC21NC(=O)N(Cc2ccccn2)C1=O` (stereo not drawn) [Compound 260, N-(3-chloro-4-fluoro-phenyl)-7-fluoro-2,5-dioxo-1-(2-pyridylmethyl)spiro [imidazolidine-4,1′-indane]-4′-carboxamide]: the EC50 under setting [1] is 13 µM.

For `CNC(=O)NC1CCc2c(C(=O)Nc3ccc(F)c(Cl)c3)ccnc21` (stereo not drawn) [Compound 263, N-(3-Chloro-4-fluorophenyl)-7-(3-methylureido)-6,7-dihydro-5H-cyclopenta[b]pyridine-4-carboxamide], under setting [2], the EC50 came to 1.9 µM.

For `COC(=O)NC1CCc2c(C(=O)Nc3ccc(F)c(Cl)c3)ccnc21` (stereo not drawn) [Compound 264, O-Methyl, N-(4-((3-chloro-4-fluorophenyl)carbamoyl)-6,7-dihydro-5H-cyclopenta[b]pyridin-7-yl) carbamate], the EC50 under setting [2] was 0.54 µM.

On to `O=C(NC1CCc2c(C(=O)Nc3ccc(F)c(Cl)c3)ccnc21)OCc1ccccn1` (stereo not drawn) [Compound 265, O-pyridin-2-ylmethyl, N-(4-((3-chloro-4-fluorophenyl)carbamoyl)-6,7-dihydro-5H-cyclopenta[b]pyridin-7-yl) carbamate], for which the EC50 under setting [1] came to 0.54 µM.
